Measurements reported in US4725577A, “Biologically active lysine containing octapeptides” (Administrators of the Tulane Educational Fund, priority 1986, dated 1988).
Non-standard residues stand in square brackets, D forms with d. Residues, ends and D or L forms follow the SMILES beside them.

Columns and labels:
[1] = system: well differentiated (WD), chemically induced ductal adenocarcinoma; details: given twice daily or as controlled-release microcapsules; pancreatic cancer model not given; cited from earlier work
[2] = system: GH Release; test: in vivo growth hormone bioassay in pentobarbital-anesthetized male rats, s.c. injection, plasma GH by RIA; parameters: species or system rat; details: for INHIBITION POTENCY GH in vivo: Table C, relative potency, SS-14 = 100, based on 4-point assays
Method: The in vivo growth hormone bioassay utilized is as follows:
Male Charles River CD rats (200-300 g.) with free access to food and water were anesthetized with sodium pentobarbital (60 mg.kg intraperitoneally). Thirty minutes later saline or octapeptide is injected subcutaneously and blood samples are drawn from the jugular vein 15 minutes after subcutaneous injection. The plasma is separated and assayed for growth hormone by RIA as described above. This in vivo bioassay is a modification of the methods used by Schally, et al., "Hypothalamic Peptide Hormones: Basic and Clinical Studies", "Hormonal Proteins and Peptides", C. H. Li, ed. Academic Press, N.Y. 7: 1-54, 1978; Meyers, C. A., Murphy, W. A., Redding T. W., Coy, D. H. and Schally, A. V., Proc. Natl. Acad. Sci., USA 77: 6171, 1980; Murphy, W. A., Meyers, C. A. and Coy, D. H., Endoc. 109: 491, (1981) as well as Veber et al., Pro. Natl. Acad. Sci., USA 75: 2636-2640 (1978). For some analogs, doses as low as 0.02 μg/100 g. or even 0.005 μg/ 100 g. are active. The potency of the octapeptides of this invention relative to somatostatin is illustrated in Tables A, B and C. Single dose assays are shown in Table A and 4 point assays at 2 dose levels in Tables B and C.

[3] = system: insulin release; test: inhibition of insulin release in vivo in fasted male rats, i.v. injection, portal plasma insulin by RIA; parameters: species or system rat; details: Table C; relative potency, SS-14 = 100; based on 4-point assays
Method: The octapeptides of the present invention are also compared to synthetic somatostatin for their ability to inhibit the release of insulin and glucagon in vivo in male rats (CD strain, Charles River) weighing 250-300 g. The rats are kept in controlled temperature (24° C.) and light (0500-1900 h) conditions for 1 week before the assay. Rats are fasted 27-30 hours with free access to water then anesthetized with Nembutal (6 mg/100 g. intraperitoneally). After 30 minutes, saline or test peptide is injected into the jugular vein and blood is collected 5 minutes later from the hepatic portal vein then transferred into chilled tubes containing EDTA (2.5 mg/ml.) and Trasylol (500 K.I.U./ml.). Plasma is separated and stored at -20° C. until assayed for insulin and glucagon. Plasma insulin is determined by double antibody radioimmunoassay using a kit from Cambridge Medical Diagnostics.

[4] = system: growth hormone release; test: time course of growth hormone suppression in vivo in Nembutal-anesthetized male rats; parameters: species or system rat; details: 2 μg/100 g
Method: In order to determine the time course of the compounds of this invention, male rats are anesthetized with Nembutal and injected with saline or the test octapeptide as in the growth hormone potency assay above. Blood is collected from the jugular vein 15, 30, 45, 60, 90, 120 and 180 minutes post subcutaneous above. This time-course experiment for octapeptides on growth hormone release in vivo a significant suppression of plasma growth hormone. […] At the dose of 2 μg/100 g., the inhibitory effect of somatostatin on growth hormone release is no longer observed after 30 minutes (FIG. 1).

[5] = system: pentagastrin or desglugastrin-induced gastric acid output; test: gastric acid secretion in dogs with gastric fistulae; type: in vivo
Method: In order to compare some of the biological actions of the octapeptides of the present invention and somatostatin on gastrointestinal secretions and on the release of some gastrointestinal homones in dogs, the following procedures are used:
Mongrel dogs weighing 15-20 kg. are prepared surgical with gastric (GF) and pancreatic fistulae (PF) as described by Konturek, et al., (1976) 225, 497 and Konturek, et al., Gastroenterology, (1976) 58, 1-6. Secretions from the GF and PF are collected continuously at 15 minute intervals. Hydrogen ion and pepsin concentrations in the […] are also measured in 15- or 30-minute outputs. (Konturek, et al., J. Physiol. Lond., 255, 497 (1976) and Konturek, et al., (1976) supra.). Basal secretion is first collected for two 15 minute periods, and then the secretory stimulant for gastric and/or pancreatic secretion is administered for 31/2 hours. When the secretory rate reaches a subtained plateau, the octapeptides or somatostatin are given in standard doses (2-μg/Kg/hr.). i.v. for a one hour period. […]
In tests on gastric stimulation, pentagastrin or desglugastrin (glutaroyl-Ala-Tyr-Gly-Trp-Leu-Asp-Phe-NH2) is infused i.v. in a constant dose (3 μg/kg/hr.), shown previously to elicit near maximal gastric acid secretion. Gastric secretion is measured and acid content determined by titration with 0.1N NaOH. […]

[6] = system: CPZ and Morphine stimulated GH secretion; test: potency #3, time course of CPZ and Morphine stimulated GH secretion; type: in vivo; details: injected dose 2.0
Excerpt: *Based on time course of CPZ and Morphine stimulated GH secretion.

D-Trp-6-LH-RH
tumor weight and volume [1]: significantly decreased

CC(=O)N[C@H](Cc1ccccc1)C(=O)N[C@H]1CSSC[C@@H](C(=O)N[C@H](C(N)=O)[C@@H](C)O)NC(=O)[C@H](C(C)C)NC(=O)[C@H](CCCCN)NC(=O)[C@@H](Cc2c[nH]c3ccccc23)NC(=O)[C@H](Cc2ccc(O)cc2)NC1=O [RC-161]
INHIBITION POTENCY GH in vivo [2]: 5520

CC(=O)N[C@H](Cc1ccccc1)C(=O)N[C@@H](CS)C(=O)N[C@@H](Cc1ccccc1)C(=O)N[C@H](Cc1c[nH]c2ccccc12)C(=O)N[C@@H](CCCCN)C(=O)N[C@H](C(=O)N[C@@H](CS)C(=O)N[C@H](C(N)=O)[C@@H](C)O)[C@@H](C)O [RC-101-II-2H, AcD-PheCysPheD-TrpLysThrCysThrNH2]
INHIBITION POTENCY GH in vivo [2]: 12900

CC(=O)N[C@@H](Cc1ccccc1)C(=O)N[C@H]1CSSC[C@@H](C(=O)N[C@H](C(N)=O)[C@@H](C)O)NC(=O)[C@H]([C@@H](C)O)NC(=O)[C@H](CCCCN)NC(=O)[C@@H](Cc2c[nH]c3ccccc23)NC(=O)[C@H](Cc2ccccc2)NC1=O [RC-101-I]
INHIBITION POTENCY GH in vivo [2]: 13560

CC(=O)N[C@@H](Cc1ccccc1)C(=O)N[C@@H](CS)C(=O)N[C@@H](Cc1ccccc1)C(=O)N[C@H](Cc1c[nH]c2ccccc12)C(=O)N[C@@H](CCCCN)C(=O)N[C@H](C(=O)N[C@@H](CS)C(=O)N[C@H](C(N)=O)[C@@H](C)O)[C@@H](C)O [RC-101-I-2H, AcPheCysPheD-TrpLysThrCysThrNH2]
INHIBITION POTENCY GH in vivo [2]: 11320

C[C@H](N)C(=O)NCC(=O)N[C@H]1CSSC[C@@H](C(=O)O)NC(=O)[C@H](CO)NC(=O)[C@H]([C@@H](C)O)NC(=O)[C@H](Cc2ccccc2)NC(=O)[C@H]([C@@H](C)O)NC(=O)[C@H](CCCCN)NC(=O)[C@H](Cc2c[nH]c3ccccc23)NC(=O)[C@H](Cc2ccccc2)NC(=O)[C@H](Cc2ccccc2)NC(=O)[C@H](CC(N)=O)NC(=O)[C@H](CCCCN)NC1=O [SS-14, Somatostatin]
GH Level 15' ([2]; Potency assay #1 (89th experiment), 0.4 μg/100 g B.W., control 116 ± 10): 88 ± 22 ng/mL | GH Level 15' ([2]; Potency assay #1, 1.6 μg/100 g B.W., control 116 ± 10): 53 ± 10 ng/mL | GH Level 15' ([2]; Potency assay #2 (108th experiment), 0.2 μg/100 g B.W., control 211 ± 56): 171 ± 26 ng/mL | GH Level 15' ([2]; Potency assay #2, 0.8 μg/100 g B.W., control 211 ± 56): 91 ± 12 ng/mL | GH-Level mean ± SEM ([2]; Table A single dose assay, 2.00 μg/100 g B.W. s.c., saline control 374 ± 69): 50 ± 12 ng/mL | GH-Level mean ± SEM ([2]; Table A single dose assay, 2.00 μg/100 g B.W. s.c., saline control 754 ± 155): 95 ± 31 ng/mL | GH-Level mean ± SEM ([2]; Table B four-point assay, 0.4 μg/100 g B.W., saline control 277 ± 166): 86 ± 16 ng/mL | GH-Level mean ± SEM ([2]; Table B four-point assay, 1.6 μg/100 g B.W., saline control 277 ± 166): 47 ± 17 ng/mL | INHIBITION POTENCY GH in vivo [2]: 100 | INHIBITION POTENCY INSULIN in vivo [3]: 100 | time after which inhibitory effect on growth hormone release is no longer observed [4]: ≤ 30 min | duration of gastric acid inhibition after infusion ([5]; dogs with gastric fistulae): short-lived | inhibition of gastric acid output from the gastric fistula ([5]; i.v. infusion for one hour, pentagastrin or desglugastrin stimulation): strongly inhibit | GH-RH LEVEL [6]: 0.1032

CC(=O)N[C@H](Cc1ccccc1)C(=O)N[C@@H](CS)C(=O)N[C@@H](Cc1ccccc1)C(=O)N[C@H](Cc1c[nH]c2ccccc12)C(=O)N[C@@H](CCCCN)C(=O)N[C@H](C(=O)N[C@@H](CS)C(=O)N1CCC[C@H]1C(N)=O)[C@@H](C)O [RC-76-2H, AcD-PheCysPheD-TrpLysThrCysProNH2] (Ac-[dF]CF[dW]KTCP-NH2)
INHIBITION POTENCY GH in vivo [2]: 1070
